In paper PMC9652379, “Safety evaluations of a synthetic antimicrobial peptide administered intravenously in rats and dogs” (Scientific Reports, 2022):

Tested on: rats
Test: Respiratory function in rats (whole body plethysmography)
Type: in vivo, rat
Settings: rats, 15 mg/kg single iv injection, positive control
Experimental: The possible side-effects of SET-M33 on respiratory function were evaluated after administration of the peptide as a single intravenous bolus at doses of 5, 9 and 15 mg/kg with vehicle (eight animals/group). Respiratory rate, tidal volume and minute volume were assessed. As in the case of neurological toxicity and the 4-week toxicity study, again the dose levels were selected on the basis DRF (above). Baclofen, a muscle relaxer and antispasmodic used to treat muscle pain, spasms and stiffness in people with multiple sclerosis or spinal cord injury or disease, was used as positive control. It was administered as a single intravenous injection at a dose of 15 mg/kg.
Whole body, bias flow plethysmography equipment was used[51]. Respiratory parameters (respiratory rate, tidal volume and minute volume) were derived from the changes in pressure associated with the warming and humidification of the air breathed in by the animal. This was monitored by specific probes located in the plethysmograph chambers. Bias flow (room air) was set at approximately 2.5 L/min. On a day prior to the first day of dosing, all animals were habituated to the plethysmographs for approximately 2 h. The study was run over 4 days and 10 animals (two from each group) were examined each day. On the day of dosing, the animals were placed in the plethysmographs for pre-dose recording (session 1) of respiratory parameters for 60 min. Groups of 8 rats were then removed from the chambers and dosed by intravenous bolus injection with vehicle, SET-M33 or positive control. Immediately after dosing, the rats were placed in the whole body plethysmographs, where they could move about freely, to continuously record respiratory parameters for 4 h post-dose (undisturbed recording). Immediately after the last post-dose recording, the animals were killed humanely by a rising concentration of carbon dioxide. Death was confirmed by dislocation of the neck. Respiratory parameters were reported at the following time points: 0, 30, 60, 90, 120, 150, 180, 210 and 240 min. Time 0 coincided with the mean value of the last 20 min of data recorded in the 60-min pre-dose period. All other time points were the mean of 10-min recordings (an average of every 10 breaths) around each time point. Each post-dose time point was analysed separately by analysis of covariance. Factors in the model were group and day of data collection, with pre-dose values as covariate.

SMILES: NCC(CC(=O)O)c1ccc(Cl)cc1 (centres unmarked) [Baclofen, reference compound]
- respiratory rate vs vehicle: sharp, statistically significant decrease
- tidal volume and minute volume vs vehicle: sharp, statistically significant increases
